The term Ki denotes the equilibrium dissociation constant of an inhibitor or competing ligand from its target.

Molecules are shown by their SMILES.

The values that follow come from PMC6155603, “Synthesis and Preliminary Biological Evaluation of Indol-3-yl-oxoacetamides as Potent Cannabinoid Receptor Type 2 Ligands” (Molecules : A Journal of Synthetic Chemistry and Natural …, 2017).

One assay concerns the target T1, human CB2 (Homo sapiens, UniProt P34972).
T1 construct: host or cells: CHO cells (stably transfected), membrane homogenates
Kind of assay: radioligand inhibition binding assay, [^3H]WIN55.212-2, membranes of CHO cells stably transfected with human CB2. Here is the method:
Non-specific binding was determined using 10 µM WIN55.212-2. The individual IC50 values were determined by non-linear curve fitting using GraphPad Prism software (version 3.0, GraphPhad, San Diego, CA, USA), and the corresponding Ki values calculated using the Cheng–Prusoff equation [44]. […] Additionally, the binding affinities towards the CB1 receptor were investigated for compounds 6 and 8 by using [^3H]CP55.40 as competitive radioligand.

Another assay addresses CB2. The note with it: reported value of lead molecule; cited from earlier work.
In the next assay the target is CB1. The note with it: reported value of lead molecule; cited from earlier work.
Another assay addresses human CB1 receptors (Homo sapiens, UniProt P21554). Kind of assay: CB1 binding assay with [^3H]CP55.40 as competitive radioligand. The note with it: no displacement of radioligand up to this concentration. Here is the method: Non-specific binding was determined using 10 µM WIN55.212-2. The individual IC50 values were determined by non-linear curve fitting using GraphPad Prism software (version 3.0, GraphPhad, San Diego, CA, USA), and the corresponding Ki values calculated using the Cheng–Prusoff equation [44]. […] Additionally, the binding affinities towards the CB1 receptor were investigated for compounds 6 and 8 by using [^3H]CP55.40 as competitive radioligand. None of the two derivatives could displace [^3H]CP55.40 from the human CB1 receptors up to a concentration of 100 µM. Thus, within this series of fluoro-substituted compounds, the N-alkyl chain of compound 8 is most suitable to obtain high affinity binding at the CB2 receptor, combined with an excellent selectivity against the CB1 receptor subtype.

T1 sequence (P34972 whole entry): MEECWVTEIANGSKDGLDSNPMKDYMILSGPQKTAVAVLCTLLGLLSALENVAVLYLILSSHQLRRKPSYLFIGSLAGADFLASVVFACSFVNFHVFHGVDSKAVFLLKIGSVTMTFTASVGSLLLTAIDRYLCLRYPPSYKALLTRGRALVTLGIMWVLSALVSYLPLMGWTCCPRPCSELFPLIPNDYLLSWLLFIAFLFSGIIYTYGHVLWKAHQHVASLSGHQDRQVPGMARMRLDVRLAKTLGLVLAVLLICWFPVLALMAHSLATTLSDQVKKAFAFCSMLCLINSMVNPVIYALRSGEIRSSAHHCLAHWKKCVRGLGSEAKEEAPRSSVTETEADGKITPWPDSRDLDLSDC
Chain of human CB1 receptors (P21554 whole entry): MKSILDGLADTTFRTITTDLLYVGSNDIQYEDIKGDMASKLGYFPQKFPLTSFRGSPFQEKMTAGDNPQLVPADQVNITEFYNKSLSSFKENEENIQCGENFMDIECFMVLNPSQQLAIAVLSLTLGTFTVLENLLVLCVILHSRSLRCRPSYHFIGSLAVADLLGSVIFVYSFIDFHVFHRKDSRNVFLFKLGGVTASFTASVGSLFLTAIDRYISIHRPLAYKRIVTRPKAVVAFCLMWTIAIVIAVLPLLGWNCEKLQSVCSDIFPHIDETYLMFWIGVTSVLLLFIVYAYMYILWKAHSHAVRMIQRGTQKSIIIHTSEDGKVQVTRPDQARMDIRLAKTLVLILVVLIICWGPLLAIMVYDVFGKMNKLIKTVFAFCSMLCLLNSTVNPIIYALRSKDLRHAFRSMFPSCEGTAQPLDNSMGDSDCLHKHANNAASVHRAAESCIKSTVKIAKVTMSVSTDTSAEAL

On to `CCCCCn1cc(C(=O)C(=O)NC23CC4CC(CC(C4)C2)C3)c2cc(-c3ccco3)ccc21` [compound 5, N-(Adamantan-1-yl)-2-(5-(furan-2-yl)-1-pentyl-1H-indol-3-yl)-2-oxoacetamide], for which the Ki at human CB2 was 8.5 nM; at CB2, 0.37 nM; at CB1, 345 nM.
Molecule `O=C(NC12CC3CC(CC(C3)C1)C2)C(=O)c1cn(CCOCCOCCF)c2ccc(-c3ccco3)cc12` [compound 6, N-(Adamantan-1-yl)-2-(1-(2-(2-(2-fluoroethoxy)ethoxy)ethyl)-5-(furan-2-yl)-1H-indol-3-yl)-2-oxoacetamide] registered a Ki at human CB2 of 27.3 nM. Besides, on human CB1 receptors, the “concentration up to which [^3H]CP55.40 was not displaced from human CB1 receptors” value is greater than 100 µM.
The matching figures for `O=C(NC12CC3CC(CC(C3)C1)C2)C(=O)c1cn(CCOCCF)c2ccc(-c3ccco3)cc12` [compound 8, N-(Adamantan-1-yl)-2-(1-(2-(2-fluoroethoxy)ethyl)-5-(furan-2-yl)-1H-indol-3-yl)-2-oxoacetamide]: 6.2 nM and greater than 100 µM.
Molecule `COCCn1cc(C(=O)C(=O)NC23CC4CC(CC(C4)C2)C3)c2cc(-c3ccco3)ccc21` [compound 7, N-(Adamantan-1-yl)-2-(5-(furan-2-yl)-1-(2-methoxyethyl)-1H-indol-3-yl)-2-oxoacetamide] gave a Ki on human CB2 of 16.1 nM.
